Experimental data from patent US12215389B2, “Compositions for detecting epigenetic modifications” (EXACT SCIENCES CORPORATION, priority 2007, dated 2025).

Assays:
[1] = test system: methylated gene promoters in plasma DNA; assay: Real-time MSP on plasma DNA; parameters: species or system human; settings: for % Specificity (all 59 controls), plasma set 1: plasma training set 1
Method: 10 ml of blood was obtained per individual using EDTA Vacutainer™ tubes. Individuals with no suspicious findings, adenomas or carcinomas based on colonoscopy were enrolled in the present study. Within 4 hrs from the blood drawing, the plasma fraction was separated from the cell fraction by centrifugation at 1500 g for 15 min (4° C.). The plasma was transferred to new tubes and once again centrifuged (1500 g, 15 min, 4° C.), after which the supernatant was transferred to new tubes and stored at −80° C. until further use. Samples were shipped on dry ice.
DNA isolation from plasma samples (1.2 to 6 ml) was performed using an upscaled phenol-chloroform DNA isolation method using the 15 ml of Heavy Phase lock Gel tubes (PLG tubes) (Eppendorf, cat #0032 005.152) or alternatively the ChargeSwitch® gDNA 1 ml serum kit from Invitrogen (cat #CS11040).
Plasma samples were thawed and 1/10 volume of 10× buffer (240 mM EDTA (pH=8.0), 750 mM NaCl), 1/10 volume of 10% SDS and 5 μl of Proteinase K (20 mg/ml stock solution) per 1 ml of sample (e.g. 15 μl for 3 ml of sample) was added to each plasma sample. This mixture was incubated overnight at 48° C. at constant shaking (200 RPM).
Subsequently the PLG tube was centrifuged at 2500 RCF for 3 min, sample mixture and approximately the same volume of phenol/chloroform (Invitrogen, cat #15593049) were added to it. This solution was briefly vortexed, mixed for 10 min using a tube rocker at room temperature and centrifuged for 5 min at 2500 RCF. In case the retrieved sample volume was ≤4 ml, an equal volume of phenol/chloroform was added. The upper aqueous layer was phenol/chloroform-treated for a second time.
DNA was precipated from the upper aqueous layer by adding 5 μl glycogen, 1/10 volume of 7.5 M Ammonium Acetate and 2-2.5 volumes of cold (−20° C.) 100% ethanol. Tubes were gently inverted and incubated at −20° C. for at least 1 h, followed by a centrifugation step at 17000 RCF for 30 min (4° C.). Ethanol was carefully removed by pipetting. Pellets were washed with 2 ml freshly prepared 70% ethanol, vortexed gently and submitted to a centrifugation step at 17000 RCF for 15 min at 4° C. After careful removal of the remaining ethanol, pellets were air dried and resuspended in 45 μl of LoTE pH 8.0. The isolated DNA is stored at −80° C. until further processing.
The complete content of DNA isolated in above procedure was subjected to sodium bisulfite treatment (BT) using the EZ-96 DNA Methylation kit from Zymo Research (Cat #D5003) performed on a pipetting robot (Tecan Freedom EVOII, Roma, Liha, Mca, Te-Vacs). Briefly, 45 μl of plasma DNA sample was mixed with 5 μl of M-Dilution Buffer (provided in kit) and incubated at 37° C. for 15 min shaking at 1100 RPM. This mixture was further incubated with 100 μl of diluted CT conversion reagent (provided in kit) shaking at 70° C. for 3 hours (protected from light). Subsequently the modified DNA was desalted and desulfonated according to manufacturer's instructions and eluted in either 40 μl or 20 μl of Tris-HCl 1 mM pH8.0, depending on the applied concentration procedure. The eluted material was stored at −80° C. until further processing.
2.4 μl of the modified DNA was added to a PCR mix (total volume 12 μl) containing home-made buffer solution (final concentrations are summarized: 16.6 mM (NH4)2SO4, 67 mM Tris (pH 8.8), 6.7 mM MgCl2, 10 mM β-mercaptoethanol), dNTPs (5 mM; Amersham Biosciences cat #27-2035-02), methylation specific forward primer (6 ng), methylation specific reverse primer (18 ng), molecular beacon (0.16 μM) and Jumpstart DNA Taq polymerase (0.4 units; Sigma Cat #D9307).
A standard curve was included (9.6×10^5—9.6 copies) to determine copy numbers of unknown samples by interpolation of their Ct values to the standard curve.
DNA was isolated following the upscaled phenol-chloroform procedure; subsequently the whole DNA sample was modified as described above.

[2] = test system: NDRG1 expression in cancer cells; settings: Guan et al. 2000, Bandyopadhyay et al. 2004; cited from earlier work
tumor endothelial cells = settings: DAC and TSA together, Hellebrekers, Melotte et al. 2007; cited from earlier work
[3] = test system: NDRG4 mRNA in CRC cell lines HCT116 and RKO; assay: NDRG4 reexpression following inhibition of DNA methyltransferases (quantitative RT-PCR); format: cell-based, human; settings: 1 μM DAC
Method: CRC cell lines HT29, SW480, Caco2, Colo205, RKO, LS174T, HCT116 and SW480 were cultured in DMEM (Invitrogen) supplemented with 10% heat-inactivated fetal calf serum (Hyclone). To investigate reexpression of NDRG4 following inhibition of DNA methyltransferases, HCT116 and RKO were treated with 1 μM DAC (Sigma).
Total RNA from cell lines, normal mucosa and tumor tissue was isolated using the Rneasy Mini kit (Qiagen) following the manufacturers instructions. Possible genomic DNA contaminations were removed by DNAse treatment with the RNase-free DNAse set (Qiagen). cDNA synthesis using the Iscript cDNA synthesis kit (Bio-Rad) was performed. Quantitative real-time (RT-PCR) was performed using SYBR Green PCR master mix (Applied Biosystems, Nieuwekerk a/d IJssel, The Netherlands). Realtime RT-PCR mixes were composed of 1× iQ SYBR Green Supermix (Bio-Rad), 400 nM of the forward (SEQ ID NO: 3 5′-[…]-3′) and reverse (SEQ ID NO: 4 5′-[…]-3′) primer and cDNA corresponding to 30 ng total RNA per reaction. As standard control, primers targeted against cyclophilin A were used. Reactions were run using the iCycler (Bio-Rad) for 40 cycles at a Tm of 60° C. The comparative Ct method was used to calculate differences in mRNA expression. […] Next, the fold difference in expression was calculated as 2-^[delta][delta]Ct, with [delta][delta]Ct=[delta]Ct,sample1-[delta]Ct,control. […]

[4] = test system: NDRG4 expression in RKO and HCT116 cell lines; assay: NDRG4 re-expression by real-time RT-PCR after treatment with DAC and TSA; format: cell-based, human; settings: combined treatment, 1 μM DAC and 300 nM TSA, cyclophilin reference gene
Method: Colon cancer cell lines LS174T, HCT116, HT29, RKO, CaCo2, Colo205, SW48 and SW480 were used for MSP, bisulfite sequencing and real time (reexpression) RT-PCR ([…] and 300 nM TSA).
Total RNA isolation was isolated by use of the Rneasy Mini kit (Qiagen) cDNA synthesis using the Iscript cDNA synthesis kit (Bio-Rad). Quantitative real-time reverse transcription-PCR was done using SYBR Green PCR Master Mix (Applied Biosystems, Nieuwekerk a/d IJssel, the Netherlands). Primers and PCR conditions are specified in Table 21.
Expression of the NDRG4 gene was determined by real-time reverse-transcription PCR (RT-PCR). […] Relative expression of NDRG4 after treatment with DAC and TSA was compared to untreated cell lines. Cyclophilin was used as a reference gene for expression normalisation.

[5] = test system: methylated gene promoters in FFPE tissue DNA; assay: Real-time MSP on colon tissue samples; parameters: species or system human
Method: Real-time MSP was applied on a 7900HT fast real-time PCR system (Applied Biosystems). 2.4 μl of the modified DNA (equivalent to 2.5 μg unconverted DNA) was added to a PCR mix (total volume 12 μl) containing buffer (16.6 mM (NH4)2SO4, 67 mM Tris (pH 8.8), 6.7 mM MgCl2, 10 mM β-mercaptoethanol), dNTPs (5 mM), forward primer (6 ng), reverse primer (18 ng), molecular beacon (0.16 μM), BSA (0.1 μg), and Jumpstart DNA Taq polymerase (0.4 units; Sigma Aldrich). Cycle program used was as follows: 5 minutes 95° C., followed by 45 cycles of 30 seconds 95° C., 30 seconds 57° C. (51° C. for APC), and 30 seconds 72° C., followed by 5 minutes 72° C. A standard curve (2×106—20 copies) was included to determine copy numbers of unknown samples by interpolation of their Ct values to the standard curve.
Marker selection in colon tissue: Based on re-expression, 224 different gene assays representing 145 gene promotors were tested on the Base5 methylation profiling platform (data not shown, see reference 1 for details). The 37 most differentially methylated gene sequences assessing 29 gene promoters were validated on retrospectively collected tumors from 65 colorectal cancer patients (all stages) and 74 distant resection ends (histopathologically normal) using real-time MSP. Several markers reliably detected CRC in those tissue samples (data not shown). The results were confirmed on an independent test set containing 39 tissue controls (non-cancerous), 34 carcinomas and 16 adenomas. Several combinations of the tested markers reliably detected CRC with high specificity and sensitivity.
The ten best performing markers GATA5, GATA4, SFRP1, SFRP2, APC, MGMT, NDRG4, OSMR, JPH3 and ADAM23 were validated with primer sets and beacon probes as specified in Table 24. In addition to the colon test genes, the independent reference gene β-Actin (ACT) was also measured. The ratios between the colon test genes and ACT were calculated, and are the test result of the assay.
Marker candidates identified by re-expression were screened using 37 real-time methylation specific PCR (real-time MSP) assays. These assays were used to assess the methylation status of 29 gene promoters in 293 formalin-fixed paraffin-embedded (FFPE) tissue samples collected from various clinics. Samples included 99 carcinomas of various stages, 16 adenomas, 63 samples from patients with cancer other than CRC (20 breast [stages I-III], 22 bladder [stages I-III], 21 lung [stages I and II]), 39 samples from patients with no evidence of cancer and 76 distant resection ends (histopathologically normal) from CRC patients. These samples were divided into training and independent test sets, and used to select the gene methylation assays best able to discriminate between cancerous and non-cancerous samples. The training set included retrospectively collected tumors from 65 colorectal cancer patients (all stages) and 74 distant resection ends. Using the 10 best performing genes the results were confirmed on an independent test set containing 59 samples from patients with cancer other than CRC, 39 non-cancerous controls and 50 cancer cases (34 carcinomas and 16 adenomas).
The individual performance of the 10 best performing tissue markers OSMR, SFRP1, GATA4, SFRP2, NDRG4, ADAM23, GATA5, MGMT, APC and JPH3 is shown in FIG. 7, when the analytical cut-off was set to give 100% specificity, except for JPH3 where a specificity of 95% was obtained (based on the 39 non-cancerous controls). In addition to the colon test genes, the independent reference gene β-Actin (ACT) was also measured. The ratios between the colon test genes and ACT were calculated, and are the test result of the assay.

[6] = 16 adenoma tissue samples vs 39 controls
[7] = 34 carcinoma tissue samples vs 39 controls

Compound: OSMR (DNA TTTGGTCGGGGTAGGAGTAGC; listed as DNA, chemistry not given here)
- % Specificity (all 59 controls), plasma set 1 [1]: 100%
- % Sensitivity adenomas plasma set 2: increased plasma equivalent of DNA per real-time MSP assay ([1]; plasma training set 2): 2%
- % Specificity (all 89 controls), plasma set 2: increased plasma equivalent of DNA per real-time MSP assay ([1]; plasma training set 2): 99%

Compound: Nc1ncn([C@H]2C[C@H](O)[C@@H](CO)O2)c(=O)n1 [DAC, 5-aza-2′-deoxycytidine]
- Expression of NDRG1 after DAC treatment [2]: upregulated
- 81 genes downregulated in tumor endothelial cells after DAC and TSA treatment (tumor endothelial cells): reexpressed
- Endogenous NDRG4 mRNA levels after treatment with DAC [3]: significant increased
- Relative expression of NDRG4 after treatment with DAC and TSA compared to untreated cell lines [4]: reactivation of NDRG4 expression

Compound: SFRP2 (DNA GGGTCGGAGTTTTTCGGAGTTGCGC; listed as DNA, chemistry not given here)
- Sensitivity [5, 6]: 81%
- Specificity [5, 6]: 100%
- Sensitivity [5, 7]: 68%
- Specificity [5, 7]: 100%
- Specificity (%) ([5]; 50 cases (adenoma + carcinoma) vs 39 controls, tissue): 100%
- Sensitivity (%) ([5]; 50 cases (adenoma + carcinoma) vs 39 controls, tissue, first cut off ratio): 72%
- Sensitivity (%) ([5]; 50 cases (adenoma + carcinoma) vs 39 controls, tissue, second cut off ratio, between ( )): (84) %
- % Specificity (all 59 controls), plasma set 1 [1]: 97%

Compound: CC(/C=C/C(=O)NO)=C\[C@@H](C)C(=O)c1ccc(N(C)C)cc1 [TSA, trichostatin A]
- 81 genes downregulated in tumor endothelial cells after DAC and TSA treatment (tumor endothelial cells): reexpressed
- Relative expression of NDRG4 after treatment with DAC and TSA compared to untreated cell lines [4]: reactivation of NDRG4 expression
